25 compounds from ChEMBL document CHEMBL1133519, “Novel design of nonpeptide AVP V(2) receptor agonists: structural requirements for an agonist having 1-(4-aminobenzoyl)-2,3,4, 5-tetrahydro-1H-1-benzazepine as a template” (J Med Chem, 2000) can be followed below.

The term IC50 denotes the concentration at which inhibition is half-maximal. For orientation: Ki means a measure of affinity in units of concentration, obtained from inhibition or displacement. Read a low Ki as tighter binding.

For assay [1], the target named is T1, Vasopressin V2 receptor (Homo sapiens, UniProt P30518). In words: Inhibition of [3H]AVP binding to human Vasopressin V2 receptor expressed in HeLa cells. The assay is classed as cell-based.
T1 sequence (P30518 whole entry): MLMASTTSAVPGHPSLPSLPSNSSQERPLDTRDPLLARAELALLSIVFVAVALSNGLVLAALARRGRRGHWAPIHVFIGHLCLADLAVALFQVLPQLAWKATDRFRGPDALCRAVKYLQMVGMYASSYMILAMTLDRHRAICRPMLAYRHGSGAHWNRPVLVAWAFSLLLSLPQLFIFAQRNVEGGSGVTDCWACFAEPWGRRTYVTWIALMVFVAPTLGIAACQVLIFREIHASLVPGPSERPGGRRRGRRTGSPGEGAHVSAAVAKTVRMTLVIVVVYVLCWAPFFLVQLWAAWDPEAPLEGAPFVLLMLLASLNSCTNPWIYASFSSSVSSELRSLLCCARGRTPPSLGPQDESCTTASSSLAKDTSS
Assay [2] can be described thus: Binding affinity towards AVP receptor.
In assay [3] the target is Vasopressin V1a receptor (Homo sapiens, UniProt P37288). In words: Binding affinity towards Vasopressin V1a receptor in human liver.
Sequence of Vasopressin V1a receptor (Homo sapiens, UniProt P37288) (P37288 whole entry): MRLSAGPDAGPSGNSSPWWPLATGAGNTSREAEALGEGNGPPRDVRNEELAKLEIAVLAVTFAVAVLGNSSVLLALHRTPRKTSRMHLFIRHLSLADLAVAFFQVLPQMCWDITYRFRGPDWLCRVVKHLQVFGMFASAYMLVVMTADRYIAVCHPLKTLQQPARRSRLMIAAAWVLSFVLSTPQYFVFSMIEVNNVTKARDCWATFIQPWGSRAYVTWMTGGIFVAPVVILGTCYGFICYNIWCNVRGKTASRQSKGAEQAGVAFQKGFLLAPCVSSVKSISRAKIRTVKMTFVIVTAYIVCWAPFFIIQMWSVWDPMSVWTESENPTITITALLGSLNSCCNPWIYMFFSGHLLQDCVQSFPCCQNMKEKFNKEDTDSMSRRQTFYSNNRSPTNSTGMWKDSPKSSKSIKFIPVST
Assay [4] has as its target T1, Vasopressin V2 receptor. Description: Concentration which inhibit [3H]AVP binding to human Vasopressin V2 receptor coded HeLa cells by 50%. The format is cell-based.
Assay [5] has as its target Vasopressin V1a receptor (Rattus norvegicus, UniProt P30560). Description: Binding affinity towards rat Vasopressin V1a receptor […].
The target of assay [6] is T2, Vasopressin V2 receptor (Rattus norvegicus, UniProt Q00788). Description: Binding affinity towards rat Vasopressin V2 receptor in vitro.
T2 sequence (Q00788 whole entry): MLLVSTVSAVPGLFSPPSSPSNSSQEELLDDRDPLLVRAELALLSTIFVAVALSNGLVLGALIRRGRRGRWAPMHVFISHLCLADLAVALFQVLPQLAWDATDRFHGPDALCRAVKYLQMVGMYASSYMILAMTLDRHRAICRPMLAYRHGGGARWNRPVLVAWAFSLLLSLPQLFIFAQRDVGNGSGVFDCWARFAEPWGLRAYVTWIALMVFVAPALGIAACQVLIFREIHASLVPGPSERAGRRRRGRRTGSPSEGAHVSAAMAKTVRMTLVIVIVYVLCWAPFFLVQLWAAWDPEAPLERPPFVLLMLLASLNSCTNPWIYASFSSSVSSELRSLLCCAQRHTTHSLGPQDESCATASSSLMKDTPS
Assay [7] deals with T2, Vasopressin V2 receptor. In words: Binding affinity towards rat Vasopressin V2 receptor.

SMILES strings stand for the structures.

Sequence of Vasopressin V1a receptor (Rattus norvegicus, UniProt P30560) (P30560 whole entry): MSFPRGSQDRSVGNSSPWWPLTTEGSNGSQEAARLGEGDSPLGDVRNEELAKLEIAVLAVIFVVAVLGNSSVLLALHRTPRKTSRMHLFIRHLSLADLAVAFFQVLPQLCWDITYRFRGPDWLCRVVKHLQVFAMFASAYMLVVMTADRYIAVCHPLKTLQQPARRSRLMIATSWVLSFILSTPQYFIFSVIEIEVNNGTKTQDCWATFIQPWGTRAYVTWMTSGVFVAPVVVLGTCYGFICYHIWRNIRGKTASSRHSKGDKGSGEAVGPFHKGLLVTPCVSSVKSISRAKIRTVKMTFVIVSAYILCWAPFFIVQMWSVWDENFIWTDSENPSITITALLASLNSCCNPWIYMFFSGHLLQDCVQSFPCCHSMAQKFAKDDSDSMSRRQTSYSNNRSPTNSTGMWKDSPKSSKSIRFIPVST

As to `O=C(c1ccc(N2CCCC2)cc1)N1CCCCc2cc(Cl)ccc21`, the IC50 at Vasopressin V2 receptor [1] was 210 nM.

Consider `CNc1ccc(C(=O)N2CCCCc3ccccc32)c(Cl)c1`, for which the half-maximal inhibitory concentration (IC50) on Vasopressin V2 receptor [1] stood at 35 nM. In turn, `Cc1ccccc1C(=O)Nc1ccc(C(=O)N2CCCC(O)c3cc(Cl)ccc32)c(C)c1` (stereo not drawn) [TOLVAPTAN] displayed a Ki in assay [2] of 0.79 nM. Consider `C=CCNc1ccc(C(=O)N2CCCCc3ccccc32)c(Cl)c1`, for which the IC50 at Vasopressin V2 receptor [1] was 5.9 nM.

In turn, `CC(=O)NCCCOc1ccc(C(=O)N2CCC(N3C(=O)CCc4ccccc43)CC2)cc1` returned a Ki on Vasopressin V1a receptor [3] of 14000 nM. This counts as double-digit micromolar. In turn, `CCN(CC)c1ccc(C(=O)N2CCCCc3ccccc32)c(Cl)c1` showed a concentration for half-maximal inhibition (IC50) on Vasopressin V2 receptor [1] of 19 nM.

`O=C(c1ccc(-n2cccn2)cc1Cl)N1CCCCc2ccccc21`: the IC50 at Vasopressin V2 receptor [1] worked out at 8.8 nM. The compound `CCCCCNc1ccc(C(=O)N2CCCCc3ccccc32)c(Cl)c1` had an IC50 at Vasopressin V2 receptor [1] of 31 nM. Regarding `CN(C)c1ccc(C(=O)N2CCCCc3ccccc32)c(Cl)c1`, at Vasopressin V2 receptor [1], the concentration for half-maximal inhibition (IC50) amounted to 18 nM. Against the preceding compound, the IC50 is about 1.7-fold lower. `O=C(c1ccc(N2CCCCC2)cc1Cl)N1CCCCc2ccccc21` yielded a concentration for half-maximal inhibition (IC50) at Vasopressin V2 receptor [1] of 120 nM.

For `Cc1ccccc1OCC(=O)Nc1ccc(C(=O)N2CCCCc3cc(Cl)ccc32)c(C)c1`, the concentration for half-maximal inhibition (IC50) turned out to be 0.95 nM on Vasopressin V2 receptor [4], 5100 nM at Vasopressin V1a receptor [5] and 38 nM on Vasopressin V2 receptor [6]. The compound `Nc1ccc(C(=O)N2CCCCc3ccccc32)cc1` returned an IC50 on Vasopressin V2 receptor [1] of 180 nM. This counts as sub-micromolar.

At Vasopressin V2 receptor [1], `Cc1ccn(-c2ccc(C(=O)N3CCCCc4ccccc43)c(Cl)c2)n1` came in with an IC50 of 13 nM. Same read-out and setting: then `CCCCNc1ccc(C(=O)N2CCCCc3ccccc32)c(Cl)c1`, with 22 nM; and `Cc1cc(N)ccc1C(=O)N1CCCCc2cc(Cl)ccc21`, with 4.1 nM. Take `O=C(c1ccc(N2CCCC2)cc1Cl)N1CCCCc2ccccc21`: the IC50 was determined as 9 nM at Vasopressin V2 receptor [1] and 150 nM on Vasopressin V2 receptor [7]. On Vasopressin V2 receptor [1], `O=C(c1ccc(-n2cccc2)cc1Cl)N1CCCCc2ccccc21` displayed a concentration for half-maximal inhibition (IC50) of 7.5 nM.

At Vasopressin V2 receptor [1], `CCNc1ccc(C(=O)N2CCCCc3ccccc32)c(Cl)c1` registered an IC50 of 34 nM. Compared with the last compound, the IC50 is about 4.5-fold higher. On the same count and under the same terms, to `CN(C)c1ccc(C(=O)N2CCCCc3cc(Cl)ccc32)c(Cl)c1` belongs 13 nM. Consider `CCCNc1ccc(C(=O)N2CCCCc3ccccc32)c(Cl)c1`, for which, on Vasopressin V2 receptor [1], the IC50 is 18 nM. Compound `O=C(c1ccc(N2CCCC2)cc1Cl)N1CCCCc2cc(Cl)ccc21` displayed a concentration for half-maximal inhibition (IC50) at Vasopressin V2 receptor [1] of 16 nM. On to `CCNc1ccc(C(=O)N2CCCCc3cc(Cl)ccc32)c(Cl)c1`, for which, at Vasopressin V2 receptor [1], the IC50 was 5 nM. Same read-out and setting: then `CC1CCN(c2ccc(C(=O)N3CCCCc4ccccc43)c(Cl)c2)C1` (stereo not drawn), with 51 nM; and `O=C(c1ccc(N2CCCC2)cc1)N1CCCCc2ccccc21`, with 1000 nM. `O=C(c1ccc(-n2cccc2)cc1)N1CCCCc2ccccc21` came in with a half-inhibitory concentration (IC50) at Vasopressin V2 receptor [1] of 320 nM.
